In patent US20120190752A1, “EXO-S-MECAMYLAMINE METHOD, USE, AND COMPOUND FOR TREATMENT” (Targacept Inc., priority 2009, published 2012):

Tested on: subjects with major depressive disorder (MDD) who were inadequate responders to citalopram
Assay: SIS (Sheehan Irritability Scale), total and individual items, Phase 2b add-on trial
Type: in vivo, human
Parameters: SIS Adj. Mean change / SIS total score change Adjusted Mean / SIS Anger With Others change Adjusted Mean / SIS Anger With Self change Adjusted Mean / SIS Edginess change Adjusted Mean / SIS Irritability change Adjusted Mean / SIS Moodiness change Adjusted Mean / SIS Temper change Adjusted Mean: scale not given here
Conditions: for SIS Difference vs placebo / SIS Adj. Mean change: ITT; for SIS Difference vs placebo: Week 8 to Week 16 LOCF; for SIS Adj. Mean change: change from Week 8 (double-blind baseline) to Week 16 LOCF, add-on to citalopram
Description: In more detail, a multi-center double-blind, randomized, placebo-controlled, parallel group, flexible dose titration study of TC-5214 as adjunctive therapy in subjects with major depressive disorder (MDD) who were inadequate responders to citalopram was conducted in centers in the US and India. The study consisted of a screening period, baseline/washout period, open-label phase, double-blind phase, and a follow-up visit. Subject participation in the study could continue for up to 16 weeks of treatment. Following a washout period of up to 28 days for other antidepressants, subjects with MDD and a MADRS total score >/=28 and a Clinical Global Impression-Severity (CGI-S) score >/=4 were enrolled on Day 1 into an open-label citalopram-only phase of the study. This phase lasted 8 weeks, with citalopram (CIT) dose increased from a once-daily dose of 20 mg (Day 1 through Week 4) to 40 mg (Week 4 through Week 8). A total of 579 subjects entered the open-label citalopram phase. At Week 8, subjects who tolerated 40 mg CIT, but whose MADRS score was reduced <50% from baseline and no lower than 17, and CGI-S≧4, were considered inadequate responders. These subjects (n=270) were randomized in a double-blind fashion to receive either placebo or TC-5214-23 as add-on therapy to continued CIT. The double-blind phase of the study also lasted 8 weeks (Week 8 to Week 16). Study drug, TC-5214-23 or placebo, was started at 2 mg daily (1 mg twice per day [BID] dosing), added on to continuing CIT (40 mg PO qd). After 2 weeks of treatment, the dose of TC-5214 could be increased to 4 mg (2 mg BID) or continued unchanged, with up-titration based upon good tolerability and inadequate therapeutic response. After a further 2 weeks, the dose of TC-5214 could be increased again to 8 mg (4 mg BID) if judged appropriate by the investigator, based upon good tolerability and inadequate therapeutic response. At any time during the double-blind phase of the study, placebo or TC-5214-23 could be reduced to the previous dose level following the emergence of unacceptable adverse events (AEs). […] At this follow-up, any signs or symptoms of relapse were evaluated. If a subject was prematurely discontinued from the study between Week 8 and Week 16 for any reason, the investigator was to make every effort to perform all evaluations as per protocol, assuming the subject had reached the end of the double-blind add-on treatment phase. These evaluations were to be made as soon as possible and within 2 weeks of discontinuation. […] There was no meaningful difference in results as a function of age, gender, site, or smoking status. [table] With regard to efficacy endpoints, the following tables present efficacy used in the ITT (Intent-to-Treat) and PP (Per Protocol) populations unless otherwise specific. The primary inference was based upon Week 16 visit using the ITT population. Change from baseline was obtained by subtracting the baseline values from the individual on-treatment values. Change from Week 16 was obtained by subtracting the Week 16 values from the individual follow-up visit (Week 18/19) values. If either the baseline or Week 16 or on-treatment or follow-up value was missing, the change from baseline or Week 16 value was also set to missing. To account for missing data, the last observation carry forward (LOCF) method was used for the ITT and PP populations. Thus, the last available on-therapy observation for a subject, including the observation at premature discontinuation, was used to estimate subsequent missing data points. For efficacy, baseline data were collected at Week 8 in the double-blind augmentation phase electronic case report form pages. For SIS, the endpoint was the change from Week 8 (double-blind baseline) to Week 16 of the SIS. Changes were analyzed using ANCOVA. Each SIS item score was also analyzed using ANCOVA. […]

[1] = ITT Population, Double Blind Week 16 LOCF, change from Week 8 (double-blind baseline)
[2] = ITT Population, Double Blind Week 18 LOCF (Follow-up)
[3] = ITT and PP populations, result in words
[4] = PP Population, Double Blind Week 16 LOCF, change from Week 8 (double-blind baseline)
[5] = PP Population, Double Blind Week 18 LOCF (Follow-up)

## CNC1(C)C2CCC(C2)C1(C)C (stereo in doubt) [TC-5214, (S)—N,2,3,3-tetramethylnorbornan-2-amine]
[1]
  SIS total score change Adjusted Mean: −18.21
  SIS total score change Mean Difference between TC-5214 and Placebo: 8.76
[2]
  SIS total score change Adjusted Mean: −0.68
  SIS total score change Mean Difference between TC-5214 and Placebo: −0.51
[3]
  SIS total score change from baseline compared with placebo: statistically significant decreases (improvements)
  each SIS individual item change from baseline compared with placebo: statistically significant decreases (improvements)
  SIS Difference vs placebo: −8.54 (−11.65, −5.44)
  SIS Adj. Mean change: −18.21 (1.12)
Listed as TC-5214 + CIT
  SIS Difference vs placebo: −8.54
  SIS Adj. Mean change: −18.21
[4]
  SIS total score change Adjusted Mean: −19.96
  SIS total score change Mean Difference between TC-5214 and Placebo: 10.04
[5]
  SIS total score change Adjusted Mean: −0.77
  SIS total score change Mean Difference between TC-5214 and Placebo: −0.34
